Reference: patent EP4623912A1, “A METHOD FOR DEFATTENING A STEATOTIC LIVER EX VIVO” (ETH Zurich, priority 2024, dated 2025)
Where a SMILES comes first, the peptide text is derived from it. The star is where a group is joined. Cbz = O=C(OCc1ccccc1)*

How the values were obtained:
[1] = test system: C57BL/6N male mice; assay: Glucose deprivation by 2-DG injection in mice; type: in vivo, mouse
Procedure: All animal experiments were permitted by the Veterinary office of the Canton of Zurich. Both female and male mice were used in the experiments, and they were housed 2-5 littermates per cage in ventilated cages at standard housing conditions (22°C, 12 h reversed light/dark cycle, dark phase starting at 7 am) with normal chow diet (18% proteins, 4.5% fibers, 4.5% fat, 6.3% ashes, Provimi Kliba SA) and water. Health status of all the mouse lines were monitored regularly based on FELASA guidelines. 8-10 weeks old C57BL/6N male mice were fasted for 24 h or injected with 2-DG (2 g/kg BW) to induce glucose deprivation for different durations. Female ROSA26-LSL-spCas9 mice (The Jackson Lab strain) were intravenously injected with AAV8-U6-Pi4kb gRNAs-TBG-Cre, AAV8-U6-Sacm1l gRNAs-TBG-Cre, AAV8-U6-Cu/7 gRNAs-TBG-Cre and AAV8-U6-Fbxw8 gRNAs-TBG-Cre virus pools to express six gRNAs targeting individual gene and CAS9 in the liver at a dose of 3×10^11 genome copies/mouse. Two weeks later, livers were harvested for protein and RNA extraction after 6 hours fasting. To determine liver TG levels under NCD feeding condition, 4 weeks after AAV administration livers were harvested after 6 hours fasting. Also 4 weeks after AAV administration, the liver specific Cul7&Fbxw8 double knockout mice were injected with 2-DG (2 g/kg BW) to induce 1 hour glucose deprivation prior to liver harvesting for protein extraction.
Adipose depots, liver pieces, differentiated iBAs, HepG2, HEK293T and HEK293-AAV cell types were homogenized in RIPA buffer (50 mM Tris-HCl pH 7.4, 150 mM NaCl, 2 mM EDTA, 1.0% Triton X100, 0.5% sodium deoxycholate) with protease inhibitors (Complete, Roche) and phosphatase inhibitors (Halt phosphatase inhibitor cocktail, ThermoFisher). The homogenates were centrifuged at 12,000×g for 10 min at 4°C to remove debris and collect whole cell extract (WCE). The concentration of WCE was determined by DC Protein Assay (Bio-Rad). After boiling the sample with Lämmeli buffer at 95°C for 5 min, equal amount of proteins was loaded and separated on 12% SDS-PAGE. The proteins were transferred to nitrocellulose membrane and blotted by ATGL (1:1000, Cell Signaling), CGI-58 (1:1000, Proteintech), phospho-HSL(Ser660) (1:1000, Cell Signaling), PLIN1 (1:1000, Cell Signaling), HSL (1:1000, Cell Signaling), γ-tubulin (1:10000, Sigma), FLAG (1:10000, Sigma; 1:1000, Cell Signaling), MGL (1:1000, Abcam), HA (1:1000, Cell signaling), FBXW8 (1:100, Santa Cruz; 1:1000, Sigma), CUL7 (1:100, Santa Cruz), HSP90 (1:1000, Cell Signaling), K48 polyubiquitin (1:1000, Cell signaling), PI4KB (1:1000, Sigma), SACM1L (1:1000, Sigma), AKT1 (1:1000, Cell Signaling), phospho-AKT1(Ser473) (1:1000, Cell Signaling), TGN46 (1:1000, Abcam), MAOA (1:1000, Abcam), PLIN2 (1:1000, Abcam), PMP70 (1:10000, Sigma), Calnexin (1:1000, Cell Signaling), ARF1 (1:1000, Invitrogen), GAPDH (1:1000, Cell Signaling), RAB7 (1:1000, Cell Signaling), alpha 1 Sodium Potassium ATPase (1:1000, Abcam), Cleaved Caspase-3 (1:1000, Cell Signaling), phospho-AMPKα (Thr172) (1:1000, Cell Signaling), AMPKα (1:1000, Cell Signaling) and GM130 (1:1000, Proteintech). The primay antibody signal was visualized by HRP-conjugated secondary antibodies (1:5000, Millipore) and the ImageQuant system (GE Healthcare Life Sciences).
For mouse insulin measurement, plasma was collected at different timepoints after 2-DG administration in wild type mice. 5 µl plasma sample was used to determine insulin levels via Ultra-sensitive mouse insulin ELISA kit (Crystal Chem, Cat# 90080) according to the manufacturer's protocol. The absorbance was measured via Synergy Gen5 Platereader at 450/630 nm. 2 µl plasma sample was used to determine glucose levels via Glucose Assay Kit (Sigma, MAK263) according to the manufacturer's protocol. The absorbance was read at 570 nm in Synergy Gen5 Platereader.
Plasma collected from mice under different conditions was used to determine levels of lipolysis and liver injury. […]

[2] = test system: ATGL; assay: ATGL in HepG2 cells after 2-DG treatment; type: cell-based, human
Procedure: HepG2 cell type was cultured in RPMI medium with 10% FBS and 1% Pen/Strep on collagen-coated plates. Lipofectamine RNAiMAX reagent mediated siRNA (100 nM) was delivered to cells at the suspended state for 48 h. Different from HEK cells, it is not necessary to induce LDs via OA treatment in that there exist LDs in the HepG2 cell type at normal culture medium. The inventors treated HepG2 cells with 10 µM PF04620110 (DGAT1 inhibitor, Sigma) & PF-06424439 (DGAT2 inhibitor, Sigma) for 48 hours or with 5 µg/mL BFA (B5936, Sigma) for 6 hours to deplete LDs and intact Golgi in the HepG2 cell type respectively before glucose deprivation. […]
Total RNA was extracted from adipose depots, liver or in vitro cell cultures via Trizol reagent (Invitrogen) according to the manufacturer's instructions. […] Quantitative PCR was performed using KAPA SYBR FAST Universal kit (Roche, KK4618) on ViiA7 (Applied Biosystems) and the relative transcript levels were normalized to […] expression via ΔΔCt method. […]
(§1) Adipose depots, liver pieces, differentiated iBAs, HepG2, HEK293T and HEK293-AAV cell types were homogenized in RIPA buffer (50 mM Tris-HCl pH 7.4, 150 mM NaCl, 2 mM EDTA, 1.0% Triton X100, 0.5% sodium deoxycholate) with protease inhibitors (Complete, Roche) and phosphatase inhibitors (Halt phosphatase inhibitor cocktail, ThermoFisher). […] The concentration of WCE was determined by DC Protein Assay (Bio-Rad). […]

[3] = test system: ATGL; assay: ATGL response to glucose deprivation in HepG2 cells after BFA treatment; type: cell-based, human; conditions: HepG2, 5 µg/mL BFA for 6 hours before glucose deprivation
Procedure: HepG2 cell type was cultured in RPMI medium with 10% FBS and 1% Pen/Strep on collagen-coated plates. Lipofectamine RNAiMAX reagent mediated siRNA (100 nM) was delivered to cells at the suspended state for 48 h. Different from HEK cells, it is not necessary to induce LDs via OA treatment in that there exist LDs in the HepG2 cell type at normal culture medium. The inventors treated HepG2 cells with 10 µM PF04620110 (DGAT1 inhibitor, Sigma) & PF-06424439 (DGAT2 inhibitor, Sigma) for 48 hours or with 5 µg/mL BFA (B5936, Sigma) for 6 hours to deplete LDs and intact Golgi in the HepG2 cell type respectively before glucose deprivation. To deprive glucose in the HepG2 cell type, we either added 2-DG at indicated concentrations to the culture medium or refresh cells with RPMI medium containing different glucose concentrations prepared from the same RPMI medium (Gibco, 11879020).
as §1

[4] = test system: ATGL; assay: Block of proteasome mediated degradation, cellular ATGL protein; type: cell-based; conditions: proteasome blocked; Chloroquine (autophagy) had no such effect
[5] = only 1 hour after 2-DG administration

O=CC[C@@H](O)[C@H](O)[C@H](O)CO [2-DG, 2-Deoxy-D-glucose]
lipolysis (plasma FFA levels) ([1]; 2-DG 2 g/kg BW, 1 h, 6 h, 12 h (Fig. 1c)): significantly induced
ATGL levels in livers of wild-type mice ([1]; 2-DG for 1 hour, not in Cul7 and Fbxw8 double knockout (Fig. 6c)): upregulation
ATGL protein levels in the liver and iBAT ([1]; 1 hour after 2-DG): increased
ATGL protein levels in the liver, iBAT, iWAT and gWAT ([1]; longer glucose deprivation (6 h, 12 h after 2-DG)): further accumulation
HSL phosphorylation in white adipose tissues [1, 5]: upregulation
plasma insulin levels [1, 5]: reduction
ATGL protein abundance ([2]; HepG2, 50 mM 2-DG (Fig. 2b)): strongly induced
ATGL transcript levels ([2]; HepG2, 2-DG treatment): without changing

C[C@H]1CCC/C=C/[C@@H]2C[C@H](O)C[C@H]2[C@H](O)/C=C/C(=O)O1 [BFA, Brefeldin A]
intracellular ATGL levels upon glucose deprivation [3]: failed to upregulate

CC(C)C[C@@H](C=O)NC(=O)[C@H](CC(C)C)NC(=O)[C@H](CC(C)C)NC(=O)OCc1ccccc1 [MG132] (Cbz-Leu-Leu-Leu-aldehyde)
cellular ATGL protein [4]: accumulation
